Data reported in patent US10385024B2, “Compounds and methods for inhibiting NHE-mediated antiport in the treatment of disorders associated with fluid retention or salt overload and gastrointestinal tract disorders” (Ardelyx, Inc., priority 2012, dated 2019).

How the values were obtained:
human NHE-3 = biological target: T1, human NHE-3 (Homo sapiens, UniProt P48764); assay: Cell-based assay of NHE-3 activity (human NHE3 inhibition assay); details: OK cells with human NHE-3 gene, BCECF pH dye, 0-30 μM test compound; for IC50: read-out: Human NHE3 pIC50 (converted)
T1 construct: expressed in transfected cells; host or cells: Opossum kidney (OK) cells (ATCC), transfected by electroporation
T1 sequence (P48764 26-834): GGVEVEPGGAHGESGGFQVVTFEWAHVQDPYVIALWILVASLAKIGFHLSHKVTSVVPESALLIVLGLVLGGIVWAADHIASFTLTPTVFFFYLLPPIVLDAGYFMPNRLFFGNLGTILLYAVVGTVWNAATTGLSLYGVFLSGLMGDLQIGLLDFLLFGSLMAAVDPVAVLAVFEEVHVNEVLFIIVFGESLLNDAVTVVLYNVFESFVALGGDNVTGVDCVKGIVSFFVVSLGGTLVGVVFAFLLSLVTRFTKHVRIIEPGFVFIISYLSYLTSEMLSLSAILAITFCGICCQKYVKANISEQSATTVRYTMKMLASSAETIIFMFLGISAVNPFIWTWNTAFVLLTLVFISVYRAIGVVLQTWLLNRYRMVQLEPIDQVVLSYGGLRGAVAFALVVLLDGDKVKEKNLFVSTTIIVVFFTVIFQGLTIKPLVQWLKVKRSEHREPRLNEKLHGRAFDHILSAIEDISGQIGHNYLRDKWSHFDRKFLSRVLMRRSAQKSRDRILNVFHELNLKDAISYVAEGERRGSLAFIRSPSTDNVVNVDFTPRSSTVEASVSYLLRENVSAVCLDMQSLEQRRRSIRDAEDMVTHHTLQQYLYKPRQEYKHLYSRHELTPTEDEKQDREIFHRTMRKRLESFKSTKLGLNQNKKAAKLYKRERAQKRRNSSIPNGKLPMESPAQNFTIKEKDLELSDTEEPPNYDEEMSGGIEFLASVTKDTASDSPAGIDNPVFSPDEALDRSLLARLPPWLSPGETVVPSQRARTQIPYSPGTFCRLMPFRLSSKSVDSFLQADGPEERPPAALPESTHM
Procedure: (§1) Rat or human NHE-3-mediated Na^+-dependent H^+ antiport was measured using a modification of the pH sensitive dye method originally reported by Paradiso (Proc. Natl. Acad. Sci. USA. (1984) 81(23): 7436-7440). Opossum kidney (OK) cells were obtained from the ATCC and propagated per their instructions. The rat NHE-3 gene (GenBank M85300) or the human NHE-3 gene (GenBank NM_004174.1) was introduced into OK cells via electroporation, and cells were seeded into 96 well plates and grown overnight. Medium was aspirated from the wells, cells were washed twice with NaCl-HEPES buffer (100 mM NaCl, 50 mM HEPES, 10 mM glucose, 5 mM KCl, 2 mM CaCl2, 1 mM MgCl2, pH 7.4), then incubated for 30 min at room temperature with NH4Cl-HEPES buffer (20 mM NH4Cl, 80 mM NaCl, 50 mM HEPES, 5 mM KCl, 2 mM CaCl2, 1 mM MgCl2, pH 7.4) containing 5 μM bis(acetoxymethyl) 3,3′-(3′,6′-bis(acetoxymethoxy)-5-((acetoxymethoxy)carbonyl)-3-oxo-3H-spiro[isobenzofuran-1,9′-xanthene]-2′,7′-diyl)dipropanoate (BCECF-AM). Cells were washed twice with Ammonium free, Na^+-free HEPES (100 mM choline, 50 mM HEPES, 10 mM glucose, 5 mM KCl, 2 mM CaCl2, 1 mM MgCl2, pH 7.4) and incubated in the same buffer for 10 minutes at room temperature to lower intracellular pH. […] Initial rates were plotted as the average 2 or more replicates, and pIC50 values were estimated using GraphPad Prism.

Rat NHE-3 [1] = biological target: T2, Rat NHE-3 (Rattus norvegicus, UniProt P26433); assay: Cell-based assay of NHE-3 activity (rat NHE-3 prompt inhibition); details: OK cells with rat NHE-3 gene, compound present during pH recovery; for IC50: read-out: Rat NHE3 pIC50 (prompt) (converted)
T2 construct: expressed in transfected cells; host or cells: Opossum kidney (OK) cells (ATCC), transfected by electroporation
T2 sequence (P26433 29-831): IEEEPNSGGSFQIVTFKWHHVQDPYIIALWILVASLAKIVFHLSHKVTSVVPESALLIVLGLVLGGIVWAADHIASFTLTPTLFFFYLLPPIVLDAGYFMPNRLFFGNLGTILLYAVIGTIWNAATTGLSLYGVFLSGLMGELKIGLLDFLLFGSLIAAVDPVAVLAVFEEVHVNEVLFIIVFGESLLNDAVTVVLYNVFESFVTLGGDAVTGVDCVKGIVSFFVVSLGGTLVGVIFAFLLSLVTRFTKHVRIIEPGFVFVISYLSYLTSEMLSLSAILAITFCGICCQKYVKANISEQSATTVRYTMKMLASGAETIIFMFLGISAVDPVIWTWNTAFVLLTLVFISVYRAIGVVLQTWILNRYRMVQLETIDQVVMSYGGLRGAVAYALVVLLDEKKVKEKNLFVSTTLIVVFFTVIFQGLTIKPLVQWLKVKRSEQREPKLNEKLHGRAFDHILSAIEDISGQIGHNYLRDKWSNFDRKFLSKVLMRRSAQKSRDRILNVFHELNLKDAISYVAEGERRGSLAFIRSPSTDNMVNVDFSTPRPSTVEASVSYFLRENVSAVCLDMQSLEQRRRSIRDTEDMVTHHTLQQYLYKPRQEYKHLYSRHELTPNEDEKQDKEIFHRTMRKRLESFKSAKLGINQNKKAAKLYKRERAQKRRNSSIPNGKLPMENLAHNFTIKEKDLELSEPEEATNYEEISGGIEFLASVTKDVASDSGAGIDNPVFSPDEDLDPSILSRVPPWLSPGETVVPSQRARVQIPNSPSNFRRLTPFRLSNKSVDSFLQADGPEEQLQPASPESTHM
Procedure: as §1

Rat NHE-3 [2] = biological target: T2, Rat NHE-3; assay: Cell-based assay of NHE-3 activity (persistent inhibition, after washout); details: OK cells with rat NHE-3 gene, 60 min incubation, recovery initiated 40 min after compound washout; for IC50: read-out: Rat NHE3 pIC50 (persistent) (converted)
Procedure: The ability of compounds to inhibit Rat NHE-3-mediated Na^+-dependent H^+ antiport after application and washout was measured using a modification of the pH sensitive dye method described above in Example 74. Opossum kidney (OK) cells were obtained from the ATCC and propagated per their instructions. The rat NHE-3 gene was introduced into OK cells via electroporation, and cells were seeded into 96 well plates and grown overnight. Medium was aspirated from the wells, cells were washed twice with NaCl-HEPES buffer (100 mM NaCl, 50 mM HEPES, 10 mM glucose, 5 mM KCl, 2 mM CaCl2, 1 mM MgCl2, pH 7.4), then overlayed with NaCl-HEPES buffer containing 0-30 μM test compound. After a 60 min incubation, the test drug containing buffer was aspirated from the cells, cells were washed twice with NaCl-HEPES buffer without drug, then incubated for 30 min at room temperature with NH4Cl-HEPES buffer (20 mM NH4Cl, 80 mM NaCl, 50 mM HEPES, 5 mM KCl, 2 mM CaCl2, 1 mM MgCl2, pH 7.4) containing 5 μM BCECF-AM. Cells were washed twice with ammonium free, Na^+-free HEPES (100 mM choline, 50 mM HEPES, 10 mM glucose, 5 mM KCl, 2 mM CaCl2, 1 mM MgCl2, pH 7.4) and incubated in the same buffer for 10 minutes at room temperature to lower intracellular pH. […] Initial rates were plotted as the average 2 or more replicates, and pIC50 values were estimated using GraphPad Prism.

IC50 (human NHE-3) [µM] | IC50 (Rat NHE-3 [1]) [µM] | IC50 (Rat NHE-3 [2]) [µM] | Human NHE3 pIC50 (human NHE-3) | Rat NHE3 pIC50 (prompt) (Rat NHE-3 [1]) | Rat NHE3 pIC50 (persistent) (Rat NHE-3 [2]) | SMILES
> 10 | > 10 | < 0.1 | – | – | – | CN1Cc2c(Cl)cc(Cl)cc2[C@H](c2cccc(S(=O)(=O)NCCOCCOCCOCCNC(=O)CCC(CCC(=O)NCCOCCOCCOCCNS(=O)(=O)c3cccc([C@@H]4CN(C)Cc5c(Cl)cc(Cl)cc54)c3)(CCC(=O)NCCOCCOCCOCCNS(=O)(=O)c3cccc([C@@H]4CN(C)Cc5c(Cl)cc(Cl)cc54)c3)NCc3ccc(-c4ccc(Cl)cc4)cc3)c2)C1 [Example 19, 4-((4′-chlorobiphenyl-4-yl)methylamino)-4-(1-(3-((S)-6,8-dichloro-2-methyl-1,2,3,4-tetrahydroisoquinolin-4-yl)phenylsulfonamido)-13-oxo-3,6,9-trioxa-12-azapentadecan-15-yl)-N^1,N^7-bis(2-(2-(2-(2-(3-((S)-6,8-dichloro-2-methyl-1,2,3,4-tetrahydroisoquinolin-4-yl)phenylsulfonamido)ethoxy)ethoxy)ethoxy)ethyl)heptanediamide]
– | – | – | A (A NHE3 pIC50 < 5) | A (A NHE3 pIC50 < 5) | B (B NHE3 pIC50 5-7) | CN1Cc2c(Cl)cc(Cl)cc2[C@H](c2cccc(S(=O)(=O)NCCOCCOCCNC(=O)CCC(CCC(=O)NCCOCCOCCNS(=O)(=O)c3cccc([C@@H]4CN(C)Cc5c(Cl)cc(Cl)cc54)c3)(CCC(=O)NCCOCCOCCNS(=O)(=O)c3cccc([C@@H]4CN(C)Cc5c(Cl)cc(Cl)cc54)c3)NCc3ccc(-c4ccc(Cl)cc4)cc3)c2)C1 [Example 24]
0.1 to 10 | 0.1 to 10 | > 10 | – | – | – | CN1Cc2c(Cl)cc(Cl)cc2[C@H](c2cccc(S(=O)(=O)NCCOCCOCCNC(=O)NCCN(CCNC(=O)NCCOCCOCCNS(=O)(=O)c3cccc([C@@H]4CN(C)Cc5c(Cl)cc(Cl)cc54)c3)C(=O)NCCCCCCCCCCCCNC(=O)N(CCNC(=O)NCCOCCOCCNS(=O)(=O)c3cccc([C@@H]4CN(C)Cc5c(Cl)cc(Cl)cc54)c3)CCNC(=O)NCCOCCOCCNS(=O)(=O)c3cccc([C@@H]4CN(C)Cc5c(Cl)cc(Cl)cc54)c3)c2)C1 [Example 45]

Second part, the molecule before the results:

SMILES | IC50 (human NHE-3) [µM] | IC50 (Rat NHE-3 [1]) [µM] | IC50 (Rat NHE-3 [2]) [µM] | Human NHE3 pIC50 (human NHE-3) | Rat NHE3 pIC50 (prompt) (Rat NHE-3 [1]) | Rat NHE3 pIC50 (persistent) (Rat NHE-3 [2])
CCCCCCCCOc1ccc(CNC(CCC(=O)NCCOCCOCCOCCNS(=O)(=O)c2cccc([C@@H]3CN(C)Cc4c(Cl)cc(Cl)cc43)c2)(CCC(=O)NCCOCCOCCOCCNS(=O)(=O)c2cccc([C@@H]3CN(C)Cc4c(Cl)cc(Cl)cc43)c2)CCC(=O)NCCOCCOCCOCCNS(=O)(=O)c2cccc([C@@H]3CN(C)Cc4c(Cl)cc(Cl)cc43)c2)cc1 [Example 20, 4-(1-(3-((S)-6,8-dichloro-2-methyl-1,2,3,4-tetrahydroisoquinolin-4-yl)phenylsulfonamido)-13-oxo-3,6,9-trioxa-12-azapentadecan-15-yl)-N^1,N^7-bis(2-(2-(2-(2-(3-((S)-6,8-dichloro-2-methyl-1,2,3,4-tetrahydroisoquinolin-4-yl)phenylsulfonamido)ethoxy)ethoxy)ethoxy)ethyl)-4-(4-(octyloxy)benzylamino)heptanediamide] | < 0.1 | 0.1 to 10 | < 0.1 | – | – | –
CCCCCCCCCCC(=O)NC(CCC(=O)NCCOCCOCCNS(=O)(=O)c1cccc([C@@H]2CN(C)Cc3c(Cl)cc(Cl)cc32)c1)(CCC(=O)NCCOCCOCCNS(=O)(=O)c1cccc([C@@H]2CN(C)Cc3c(Cl)cc(Cl)cc32)c1)CCC(=O)NCCOCCOCCNS(=O)(=O)c1cccc([C@@H]2CN(C)Cc3c(Cl)cc(Cl)cc32)c1 [Example 22] | – | – | – | B (B NHE3 pIC50 5-7) | A (A NHE3 pIC50 < 5) | B (B NHE3 pIC50 5-7)
CCCCCCCCOc1ccc(CNC(CCC(=O)NCCOCCOCCNS(=O)(=O)c2cccc([C@@H]3CN(C)Cc4c(Cl)cc(Cl)cc43)c2)(CCC(=O)NCCOCCOCCNS(=O)(=O)c2cccc([C@@H]3CN(C)Cc4c(Cl)cc(Cl)cc43)c2)CCC(=O)NCCOCCOCCNS(=O)(=O)c2cccc([C@@H]3CN(C)Cc4c(Cl)cc(Cl)cc43)c2)cc1 [Example 23] | – | – | – | C (C NHE3 pIC50 > 7) | B (B NHE3 pIC50 5-7) | B (B NHE3 pIC50 5-7)
CN1Cc2c(Cl)cc(Cl)cc2[C@H](c2cccc(S(=O)(=O)NCCOCCOCCOCCNC(=O)CN(CCOCCOCCN(CC(=O)NCCOCCOCCOCCNS(=O)(=O)c3cccc([C@@H]4CN(C)Cc5c(Cl)cc(Cl)cc54)c3)CC(=O)NCCOCCOCCOCCNS(=O)(=O)c3cccc([C@@H]4CN(C)Cc5c(Cl)cc(Cl)cc54)c3)CC(=O)NCCOCCOCCOCCNS(=O)(=O)c3cccc([C@@H]4CN(C)Cc5c(Cl)cc(Cl)cc54)c3)c2)C1 [Example 42, 3,12-bis(14-(3-((S)-6,8-dichloro-2-methyl-1,2,3,4-tetrahydroisoquinolin-4-yl)phenylsulfonamido)-2-oxo-6,9,12-trioxa-3-azatetradecyl)-N^1,N^14-bis(2-(2-(2-(2-(3-((S)-6,8-dichloro-2-methyl-1,2,3,4-tetrahydroisoquinolin-4-yl)phenylsulfonamido)ethoxy)ethoxy)ethoxy)ethyl)-6,9-dioxa-3,12-diazatetradecane-1,14-diamide] | < 0.1 | < 0.1 | < 0.1 | – | – | –
CN1Cc2c(Cl)cc(Cl)cc2[C@H](c2cccc(S(=O)(=O)NCCOCCOCCNC(=O)NCCN(CCNC(=O)NCCOCCOCCNS(=O)(=O)c3cccc([C@@H]4CN(C)Cc5c(Cl)cc(Cl)cc54)c3)C(=O)CCCCCCCCCCC(=O)N(CCNC(=O)NCCOCCOCCNS(=O)(=O)c3cccc([C@@H]4CN(C)Cc5c(Cl)cc(Cl)cc54)c3)CCNC(=O)NCCOCCOCCNS(=O)(=O)c3cccc([C@@H]4CN(C)Cc5c(Cl)cc(Cl)cc54)c3)c2)C1 [Example 44, N^1,N^1,N^12,N^12-tetrakis(13-(3-((S)-6,8-dichloro-2-methyl-1,2,3,4-tetrahydroisoquinolin-4-yl)phenylsulfonamido)-4-oxo-8,11-dioxa-3,5-diazatridecyl)dodecanediamide] | > 10 | > 10 | 0.1 to 10 | – | – | –
CN1Cc2c(Cl)cc(Cl)cc2[C@H](c2cccc(S(=O)(=O)NCCOCCOCCOCCNC(=O)CN(CC(=O)NCCOCCOCCOCCNS(=O)(=O)c3cccc([C@@H]4CN(C)Cc5c(Cl)cc(Cl)cc54)c3)[C@@H]3CCCC[C@H]3N(CC(=O)NCCOCCOCCOCCNS(=O)(=O)c3cccc([C@@H]4CN(C)Cc5c(Cl)cc(Cl)cc54)c3)CC(=O)NCCOCCOCCOCCNS(=O)(=O)c3cccc([C@@H]4CN(C)Cc5c(Cl)cc(Cl)cc54)c3)c2)C1 [Example 48] | – | – | – | C (C NHE3 pIC50 > 7) | B (B NHE3 pIC50 5-7) | C (C NHE3 pIC50 > 7)
